Measurements as given in ChEMBL document CHEMBL5696442, “Discovery of type II inhibitors of TGFβ-activated kinase 1 (TAK1) and mitogen-activated protein kinase kinase kinase kinase 2 (MAP4K2)” (J Med Chem, 2015).
The source made the active and inactive calls. No cut-off for these calls is given here.

Assays:
[1] = biological target: Misshapen-like kinase 1 (Homo sapiens) (UniProt Q8N4C8); assay: Inhibition of ZC3/MINK Lys2 labeling site in human Huh-7 cells at 1 uM by KiNativ Profiling analysis relative to control; format: cell-based
[2] = biological target: Calcium/calmodulin-dependent protein kinase type II subunit beta (Homo sapiens) (UniProt Q13554); assay: Inhibition of CaMK2b Lys2 labeling site in human Huh-7 cell lysate at 1 uM by KiNativ Profiling analysis relative to control; format: subcellular
[3] = biological target: Serine/threonine-protein kinase WNK2 (Homo sapiens) (UniProt Q9Y3S1); assay: Inhibition of Wnk2 ACT labeling site in human Huh-7 cells at 1 uM by KiNativ Profiling analysis relative to control; format: cell-based
[4] = biological target: T1, Serine/threonine-protein kinase ULK1 (Homo sapiens) (UniProt O75385); assay: Inhibition of ULK1 Lys2 labeling site in human A-375 cells at 5 uM by KiNativ Profiling analysis relative to control; format: cell-based
T1 sequence (whole entry): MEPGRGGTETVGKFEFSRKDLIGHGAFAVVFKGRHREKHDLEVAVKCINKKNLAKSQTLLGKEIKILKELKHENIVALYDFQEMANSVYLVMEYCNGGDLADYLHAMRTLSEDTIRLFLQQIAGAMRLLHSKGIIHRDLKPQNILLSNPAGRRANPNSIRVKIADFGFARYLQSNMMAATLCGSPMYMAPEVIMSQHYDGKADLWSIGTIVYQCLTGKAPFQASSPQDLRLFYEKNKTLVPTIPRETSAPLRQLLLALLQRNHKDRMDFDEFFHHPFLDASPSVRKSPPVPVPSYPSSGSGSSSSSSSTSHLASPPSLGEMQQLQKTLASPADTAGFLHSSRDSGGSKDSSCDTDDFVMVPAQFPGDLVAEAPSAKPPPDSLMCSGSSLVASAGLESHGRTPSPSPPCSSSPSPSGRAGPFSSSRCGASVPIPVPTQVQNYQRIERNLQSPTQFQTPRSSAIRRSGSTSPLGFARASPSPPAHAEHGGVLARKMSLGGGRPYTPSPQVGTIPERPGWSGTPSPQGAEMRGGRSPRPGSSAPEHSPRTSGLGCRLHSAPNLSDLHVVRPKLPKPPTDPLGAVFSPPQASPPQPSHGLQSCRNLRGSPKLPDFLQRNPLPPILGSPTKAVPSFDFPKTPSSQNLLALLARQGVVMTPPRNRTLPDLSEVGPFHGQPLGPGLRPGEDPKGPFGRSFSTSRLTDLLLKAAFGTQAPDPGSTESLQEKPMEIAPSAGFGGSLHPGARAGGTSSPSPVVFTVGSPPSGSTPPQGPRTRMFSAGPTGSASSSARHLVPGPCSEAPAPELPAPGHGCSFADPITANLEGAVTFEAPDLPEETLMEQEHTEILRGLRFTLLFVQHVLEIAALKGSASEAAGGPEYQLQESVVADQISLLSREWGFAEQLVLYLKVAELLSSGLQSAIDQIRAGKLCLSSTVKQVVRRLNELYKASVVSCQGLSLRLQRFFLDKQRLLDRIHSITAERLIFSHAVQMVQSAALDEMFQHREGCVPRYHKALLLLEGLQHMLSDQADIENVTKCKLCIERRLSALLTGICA

[5] = biological target: SNF-related serine/threonine-protein kinase (Homo sapiens) (UniProt Q9NRH2); assay: Inhibition of SNRK (unknown origin) at 1 uM by Ambit Kinomescan binding assay relative to control
[6] = biological target: Leucine-rich repeat serine/threonine-protein kinase 2 (Homo sapiens) (UniProt Q5S007); assay: Inhibition of LRRK2 (unknown origin) at 1 uM by Ambit Kinomescan binding assay relative to control; values are per cent of control
[7] = biological target: Dual specificity mitogen-activated protein kinase kinase 1 (Homo sapiens) (UniProt Q02750); assay: Inhibition of MAP2K1 Lys2 labeling site harbouring DVKPSNILVNSR in human A-375 cells at 5 uM by KiNativ Profiling analysis relative to control; format: cell-based
[8] = biological target: Cyclin-dependent kinase 7 (Homo sapiens) (UniProt P50613); assay: Inhibition of CDK7 (unknown origin) at 10 uM by Ambit Kinomescan binding assay relative to control
[9] = biological target: Tyrosine-protein kinase Srms (Homo sapiens) (UniProt Q9H3Y6); assay: Inhibition of SRMS (unknown origin) at 10 uM by Ambit Kinomescan binding assay relative to control; values are per cent of control
[10] = biological target: T2, Dual specificity mitogen-activated protein kinase kinase 6 (Homo sapiens) (UniProt P52564); assay: Inhibition of MAP2K6 ACT labeling site in human Huh-7 cells at 10 uM by KiNativ Profiling analysis relative to control; format: cell-based
T2 sequence (whole entry): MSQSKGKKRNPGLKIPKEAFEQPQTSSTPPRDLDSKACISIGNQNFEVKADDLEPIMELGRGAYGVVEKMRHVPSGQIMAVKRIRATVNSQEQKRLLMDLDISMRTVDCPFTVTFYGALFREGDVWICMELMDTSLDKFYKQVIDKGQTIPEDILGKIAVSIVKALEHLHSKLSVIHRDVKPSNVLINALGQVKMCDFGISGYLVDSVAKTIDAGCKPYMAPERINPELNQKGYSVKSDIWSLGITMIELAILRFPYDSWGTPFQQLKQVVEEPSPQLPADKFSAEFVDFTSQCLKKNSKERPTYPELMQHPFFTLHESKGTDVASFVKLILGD

[11] = biological target: Maternal embryonic leucine zipper kinase (Homo sapiens) (UniProt Q14680); assay: Inhibition of MELK Lys2 labeling site in human A-375 cells at 0.05 uM by KiNativ Profiling analysis relative to control; format: cell-based
[12] = biological target: Serine/threonine-protein kinase 32B (Homo sapiens) (UniProt Q9NY57); assay: Inhibition of YANK2 (unknown origin) at 10 uM by Ambit Kinomescan binding assay
[13] = biological target: Mitogen-activated protein kinase 14 (Homo sapiens, UniProt Q16539); assay: Inhibition of p38a in human Huh-7 cells at 10 uM by KiNativ Profiling analysis relative to control; format: cell-based
[14] = biological target: Casein kinase I isoform delta (Homo sapiens) (UniProt P48730); assay: Inhibition of CK1 delta K2 labeling site in human Huh-7 cells at 10 uM by KiNativ Profiling analysis relative to control; format: cell-based
[15] = biological target: Serine/threonine-protein kinase B-raf (Homo sapiens, UniProt P15056); assay: Inhibition of BRAF (unknown origin) at 10 uM by Ambit Kinomescan binding assay relative to control

Serine/threonine-protein kinase WNK2 (Homo sapiens), sequence (Q9Y3S1 whole entry): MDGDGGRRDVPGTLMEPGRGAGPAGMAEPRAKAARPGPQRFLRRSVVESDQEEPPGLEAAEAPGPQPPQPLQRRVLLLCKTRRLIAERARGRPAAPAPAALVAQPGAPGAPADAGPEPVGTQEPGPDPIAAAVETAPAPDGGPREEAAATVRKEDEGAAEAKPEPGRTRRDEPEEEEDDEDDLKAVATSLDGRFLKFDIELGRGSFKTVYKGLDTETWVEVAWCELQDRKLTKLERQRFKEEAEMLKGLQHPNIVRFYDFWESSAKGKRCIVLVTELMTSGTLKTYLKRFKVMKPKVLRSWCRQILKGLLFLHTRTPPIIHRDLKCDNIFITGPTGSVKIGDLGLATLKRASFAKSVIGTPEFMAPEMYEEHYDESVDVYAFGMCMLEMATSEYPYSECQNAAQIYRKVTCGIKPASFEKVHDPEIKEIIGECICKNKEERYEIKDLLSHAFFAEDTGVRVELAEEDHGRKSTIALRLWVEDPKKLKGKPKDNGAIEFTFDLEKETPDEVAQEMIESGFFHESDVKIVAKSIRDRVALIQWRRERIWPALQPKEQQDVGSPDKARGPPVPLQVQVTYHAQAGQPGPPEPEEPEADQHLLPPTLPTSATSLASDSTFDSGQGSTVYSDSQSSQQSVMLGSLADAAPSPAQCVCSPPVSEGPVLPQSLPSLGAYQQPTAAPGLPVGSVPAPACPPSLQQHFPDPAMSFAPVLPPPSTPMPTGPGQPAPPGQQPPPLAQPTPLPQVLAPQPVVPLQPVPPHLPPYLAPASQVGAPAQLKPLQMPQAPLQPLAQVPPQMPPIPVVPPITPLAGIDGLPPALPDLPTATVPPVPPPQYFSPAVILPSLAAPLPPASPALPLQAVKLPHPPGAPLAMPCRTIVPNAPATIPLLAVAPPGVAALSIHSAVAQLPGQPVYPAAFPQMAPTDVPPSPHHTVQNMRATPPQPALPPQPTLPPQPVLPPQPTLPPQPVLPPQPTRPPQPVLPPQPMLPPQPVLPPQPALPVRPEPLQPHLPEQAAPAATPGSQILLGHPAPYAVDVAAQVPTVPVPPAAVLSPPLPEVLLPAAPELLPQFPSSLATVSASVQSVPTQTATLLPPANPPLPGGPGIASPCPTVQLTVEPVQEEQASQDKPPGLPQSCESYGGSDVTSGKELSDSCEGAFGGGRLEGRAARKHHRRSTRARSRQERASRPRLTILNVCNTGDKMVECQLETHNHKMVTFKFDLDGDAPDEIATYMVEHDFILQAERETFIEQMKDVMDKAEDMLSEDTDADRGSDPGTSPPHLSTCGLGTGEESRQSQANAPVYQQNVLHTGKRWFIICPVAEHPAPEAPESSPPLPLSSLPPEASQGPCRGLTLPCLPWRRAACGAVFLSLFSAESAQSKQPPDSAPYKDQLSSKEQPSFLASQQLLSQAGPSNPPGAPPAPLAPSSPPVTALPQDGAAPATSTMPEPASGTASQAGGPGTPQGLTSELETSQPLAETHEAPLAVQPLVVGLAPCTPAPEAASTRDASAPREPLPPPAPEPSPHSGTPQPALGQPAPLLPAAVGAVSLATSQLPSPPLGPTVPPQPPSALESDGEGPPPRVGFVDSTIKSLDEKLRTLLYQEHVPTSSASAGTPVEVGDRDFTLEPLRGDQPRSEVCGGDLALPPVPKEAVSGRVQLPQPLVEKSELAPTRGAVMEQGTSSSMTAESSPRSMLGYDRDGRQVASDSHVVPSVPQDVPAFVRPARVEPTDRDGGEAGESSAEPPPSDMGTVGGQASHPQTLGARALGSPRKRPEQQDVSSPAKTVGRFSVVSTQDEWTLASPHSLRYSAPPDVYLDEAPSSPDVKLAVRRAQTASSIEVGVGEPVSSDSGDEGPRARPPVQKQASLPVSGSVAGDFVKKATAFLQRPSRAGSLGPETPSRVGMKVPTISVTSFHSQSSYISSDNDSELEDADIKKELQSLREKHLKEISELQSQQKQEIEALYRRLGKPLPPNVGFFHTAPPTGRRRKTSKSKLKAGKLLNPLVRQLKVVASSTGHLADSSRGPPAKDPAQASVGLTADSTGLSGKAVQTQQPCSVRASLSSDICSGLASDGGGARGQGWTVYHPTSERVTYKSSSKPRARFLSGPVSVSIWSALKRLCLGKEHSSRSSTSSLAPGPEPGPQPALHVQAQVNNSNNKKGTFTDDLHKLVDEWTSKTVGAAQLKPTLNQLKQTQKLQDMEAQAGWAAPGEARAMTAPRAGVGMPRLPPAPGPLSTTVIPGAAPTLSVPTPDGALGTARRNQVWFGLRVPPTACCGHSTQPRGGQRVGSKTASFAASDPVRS
Calcium/calmodulin-dependent protein kinase type II subunit beta (Homo sapiens), sequence (Q13554 whole entry): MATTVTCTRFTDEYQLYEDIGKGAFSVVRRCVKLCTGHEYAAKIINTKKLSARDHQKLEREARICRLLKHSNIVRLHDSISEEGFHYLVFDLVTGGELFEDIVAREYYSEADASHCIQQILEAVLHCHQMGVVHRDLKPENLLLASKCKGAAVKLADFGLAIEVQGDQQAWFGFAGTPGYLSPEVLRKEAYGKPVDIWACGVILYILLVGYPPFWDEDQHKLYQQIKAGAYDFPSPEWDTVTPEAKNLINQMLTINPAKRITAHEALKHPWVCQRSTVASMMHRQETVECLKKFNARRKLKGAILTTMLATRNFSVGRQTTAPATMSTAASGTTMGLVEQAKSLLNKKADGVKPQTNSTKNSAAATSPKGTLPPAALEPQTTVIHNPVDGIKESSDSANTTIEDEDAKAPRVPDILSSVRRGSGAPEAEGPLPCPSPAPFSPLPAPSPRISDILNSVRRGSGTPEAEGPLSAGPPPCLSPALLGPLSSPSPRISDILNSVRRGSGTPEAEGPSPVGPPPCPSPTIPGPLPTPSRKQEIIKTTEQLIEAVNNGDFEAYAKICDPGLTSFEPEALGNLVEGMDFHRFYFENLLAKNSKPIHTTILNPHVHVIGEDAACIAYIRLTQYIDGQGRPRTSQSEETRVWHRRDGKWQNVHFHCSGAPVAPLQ
SNF-related serine/threonine-protein kinase (Homo sapiens), sequence (Q9NRH2 whole entry): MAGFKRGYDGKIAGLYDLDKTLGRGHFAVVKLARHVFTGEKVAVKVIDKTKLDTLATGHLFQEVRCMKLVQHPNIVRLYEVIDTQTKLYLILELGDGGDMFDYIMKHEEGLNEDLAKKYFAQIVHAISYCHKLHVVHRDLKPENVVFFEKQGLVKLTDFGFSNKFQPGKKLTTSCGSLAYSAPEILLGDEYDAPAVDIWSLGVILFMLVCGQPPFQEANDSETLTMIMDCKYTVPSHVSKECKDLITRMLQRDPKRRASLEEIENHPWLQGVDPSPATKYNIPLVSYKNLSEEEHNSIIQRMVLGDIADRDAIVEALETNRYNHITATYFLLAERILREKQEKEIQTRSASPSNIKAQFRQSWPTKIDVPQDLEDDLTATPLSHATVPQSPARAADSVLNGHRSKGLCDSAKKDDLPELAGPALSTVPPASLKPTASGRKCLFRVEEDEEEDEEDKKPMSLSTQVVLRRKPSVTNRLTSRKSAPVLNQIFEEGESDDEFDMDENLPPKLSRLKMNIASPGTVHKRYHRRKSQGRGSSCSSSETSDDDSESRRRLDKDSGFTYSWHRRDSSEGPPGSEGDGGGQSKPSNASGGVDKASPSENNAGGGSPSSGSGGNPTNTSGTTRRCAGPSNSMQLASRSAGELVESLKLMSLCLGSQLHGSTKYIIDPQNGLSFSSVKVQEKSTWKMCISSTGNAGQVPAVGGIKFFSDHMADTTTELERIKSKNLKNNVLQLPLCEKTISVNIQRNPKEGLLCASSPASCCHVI
Tyrosine-protein kinase Srms (Homo sapiens), sequence (Q9H3Y6 whole entry): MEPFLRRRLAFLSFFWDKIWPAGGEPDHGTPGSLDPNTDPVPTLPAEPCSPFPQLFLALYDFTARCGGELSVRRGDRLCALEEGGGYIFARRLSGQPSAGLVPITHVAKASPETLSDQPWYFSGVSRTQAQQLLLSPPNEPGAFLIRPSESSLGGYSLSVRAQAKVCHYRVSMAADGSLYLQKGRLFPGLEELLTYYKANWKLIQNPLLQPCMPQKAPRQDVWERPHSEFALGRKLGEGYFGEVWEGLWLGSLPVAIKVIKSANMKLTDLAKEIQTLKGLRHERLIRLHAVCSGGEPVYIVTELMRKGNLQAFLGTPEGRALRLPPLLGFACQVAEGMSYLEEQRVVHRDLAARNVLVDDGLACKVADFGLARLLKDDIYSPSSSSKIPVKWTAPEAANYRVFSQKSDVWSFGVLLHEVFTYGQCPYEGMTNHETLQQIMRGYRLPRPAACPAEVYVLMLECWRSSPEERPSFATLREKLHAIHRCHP
Maternal embryonic leucine zipper kinase (Homo sapiens), sequence (Q14680 whole entry, looked up): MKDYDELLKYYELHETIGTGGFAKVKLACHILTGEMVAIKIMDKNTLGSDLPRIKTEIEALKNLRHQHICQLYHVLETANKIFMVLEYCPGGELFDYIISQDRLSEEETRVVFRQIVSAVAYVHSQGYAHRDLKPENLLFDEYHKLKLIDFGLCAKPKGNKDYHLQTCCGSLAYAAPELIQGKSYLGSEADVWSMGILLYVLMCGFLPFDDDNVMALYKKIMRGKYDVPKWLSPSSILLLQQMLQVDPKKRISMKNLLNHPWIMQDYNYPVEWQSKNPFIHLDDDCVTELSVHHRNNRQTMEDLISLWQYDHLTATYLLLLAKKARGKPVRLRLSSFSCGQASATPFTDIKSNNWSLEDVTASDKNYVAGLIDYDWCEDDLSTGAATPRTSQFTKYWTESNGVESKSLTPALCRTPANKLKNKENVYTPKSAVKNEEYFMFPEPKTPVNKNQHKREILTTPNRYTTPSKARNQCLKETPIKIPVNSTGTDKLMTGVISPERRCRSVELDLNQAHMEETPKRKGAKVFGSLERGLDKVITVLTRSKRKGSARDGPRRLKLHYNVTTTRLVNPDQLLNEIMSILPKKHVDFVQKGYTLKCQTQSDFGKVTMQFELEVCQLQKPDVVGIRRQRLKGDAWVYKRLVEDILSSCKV

CNc1cc(Oc2cc(C(=O)Nc3cc(N4CCN(C)CC4)cc(C(F)(F)F)c3)ccc2C)ncn1
inhibition [1]: 9.7% | inhibition [2]: 0.7% | inhibition [3]: 21.6%

CCN1CCN(Cc2ccc(NC(=O)c3ccc(C)c(/C=C/c4cnc5[nH]ccc5c4OC)c3)cc2C(F)(F)F)CC1
inhibition [4]: -1.3% | inhibition [5]: 100% | residual activity [6]: 53%

CCN1CCN(Cc2ccc(NC(=O)c3ccc(C)c(Oc4ccnc5[nH]ccc45)c3)cc2C(F)(F)F)CC1
inhibition [7]: -10% | inhibition [8]: 2.4% | residual activity [9]: 4.6% | inhibition [10]: 15.4% | inhibition [11]: 4.1% | inhibition [12]: inactive | inhibition [13]: 98.5% | inhibition [14]: 7.8% | inhibition [15]: 9.1%
